“Also recorded” adds a separate entry of the source.

We go through three compounds from patent US20200055896A1, “SUBSTRATES RECOGNIZED BY FIBROBLAST ACTIVATION PROTEIN (FAP) AND METHODS OF USING THE SAME” (GENENTECH, INC., priority 2017, published 2020).

For data set [1], the system named is GP probe cleaving activity in plasma. The data set is described as follows: GP cleavage in mouse plasma in the presence of cpd60 and/or KYP. In kind it is biochemical, mice. Here is the method:
(§1) Mouse plasma samples were prepared in K3-EDTA MiniCollect tubes (Greiner Bio-One, 450475) and frozen immediately at −80° C. prior to analysis. Human serum samples were obtained from healthy donors or purchased from Discovery Life Sciences, Inc. (Los Osos, Calif.).
(§2) Peptides of the region flanking the C-terminal human FGF21 cleavage site (VGPSQG) or a variant with D-alanine at P2 (VaPSQG) were synthesized (Anaspec, Inc.), containing an amine-terminal donor (HyLite Fluor 488 or Cy5.5 for aP NIRF) and a dark quencher-acceptor (QXL 520 or QSY21 for aP NIRF) conjugated to a supplementary C-terminal lysine. ANPFAP (Bioconjugate Chem 23:1704-11) and aP NIRF were synthesized by CPC Scientific (Sunnyvale, Calif.). Assays were conducted at 37° C. in 50 mM HEPES (pH 7.2), 150 mM NaCl, 1 mM EDTA, 0.1 mg/ml BSA. The excitation/emission wavelengths of cleaved peptide are 490/520 nm or 675/695 nm for ANPFAP and aP NIRF. Fluorescence was monitored on a Tecan M1000 Pro plate reader in kinetic mode. Except where indicated otherwise, measurements of serum or plasma FAP activity were performed with the peptide substrate concentration at 6 μM and a 10-fold dilution of serum or plasma in assay buffer.

Another data set concerns FAP-related activity. The note with it: cynomolgus monkeys, cited from earlier work.
In the next data set the target is T1, circulating FAP activity (Mus musculus, UniProt P97321).
T1 construct: the extracellular domain encoding the active enzyme can be shed from the cell surface; from tissue; host or cells: mouse plasma (C57BL/6 background; Fap +/+, +/-, -/-)
T1 sequence (P97321 24-761 limits assumed): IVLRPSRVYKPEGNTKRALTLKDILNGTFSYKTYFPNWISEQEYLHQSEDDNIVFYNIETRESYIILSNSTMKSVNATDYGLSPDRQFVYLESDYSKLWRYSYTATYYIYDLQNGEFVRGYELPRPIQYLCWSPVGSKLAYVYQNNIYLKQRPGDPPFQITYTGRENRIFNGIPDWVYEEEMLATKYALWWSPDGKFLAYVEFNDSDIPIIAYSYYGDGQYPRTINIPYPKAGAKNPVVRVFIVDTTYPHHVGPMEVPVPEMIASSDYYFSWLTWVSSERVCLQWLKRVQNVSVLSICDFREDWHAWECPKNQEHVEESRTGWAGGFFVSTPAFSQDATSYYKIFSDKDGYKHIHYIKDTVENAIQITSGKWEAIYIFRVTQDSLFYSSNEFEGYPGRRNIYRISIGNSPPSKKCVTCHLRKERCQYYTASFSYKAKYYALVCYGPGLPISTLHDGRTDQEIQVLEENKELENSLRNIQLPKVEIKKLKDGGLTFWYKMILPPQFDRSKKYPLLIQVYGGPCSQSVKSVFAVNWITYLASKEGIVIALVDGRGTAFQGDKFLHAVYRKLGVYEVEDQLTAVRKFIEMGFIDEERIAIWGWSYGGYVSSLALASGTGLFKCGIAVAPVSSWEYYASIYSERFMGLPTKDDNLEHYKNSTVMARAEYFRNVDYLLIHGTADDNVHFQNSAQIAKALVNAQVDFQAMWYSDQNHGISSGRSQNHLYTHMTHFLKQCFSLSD
The data set is described as follows: In vivo pharmacological FAP inhibition: mice fed chow with cpd60, plasma FAP activity by aP peptide. To be noted: chow with 100 ppm cpd60 ad libitum, day 4 and 7. Here is the method:
Mice were maintained in a pathogen-free animal facility at 21° C. under standard 12 h light/12 h dark cycle with access to normal chow (Labdiet 5010) and water ad libitum unless otherwise indicated. Generation of Fap KO mice was described previously (Dunshee, et al. (2016) J Biol Chem 291:5986-96).
as §1
as §2, with “Except where indicated otherwise, measurements of serum or plasma FAP activity were performed with the peptide substrate concentration at 6 μM and a 10-fold dilution of serum or plasma in assay buffer.” left out

Another data set addresses T2, recombinant human FAP (Homo sapiens, UniProt Q12884).
T2 construct: (residues L26-D760 and L26-D761, respectively); octa-His (N); made in house; host or cells: transiently transfected CHO cells (conditioned media)
T2 sequence (Q12884 26-760): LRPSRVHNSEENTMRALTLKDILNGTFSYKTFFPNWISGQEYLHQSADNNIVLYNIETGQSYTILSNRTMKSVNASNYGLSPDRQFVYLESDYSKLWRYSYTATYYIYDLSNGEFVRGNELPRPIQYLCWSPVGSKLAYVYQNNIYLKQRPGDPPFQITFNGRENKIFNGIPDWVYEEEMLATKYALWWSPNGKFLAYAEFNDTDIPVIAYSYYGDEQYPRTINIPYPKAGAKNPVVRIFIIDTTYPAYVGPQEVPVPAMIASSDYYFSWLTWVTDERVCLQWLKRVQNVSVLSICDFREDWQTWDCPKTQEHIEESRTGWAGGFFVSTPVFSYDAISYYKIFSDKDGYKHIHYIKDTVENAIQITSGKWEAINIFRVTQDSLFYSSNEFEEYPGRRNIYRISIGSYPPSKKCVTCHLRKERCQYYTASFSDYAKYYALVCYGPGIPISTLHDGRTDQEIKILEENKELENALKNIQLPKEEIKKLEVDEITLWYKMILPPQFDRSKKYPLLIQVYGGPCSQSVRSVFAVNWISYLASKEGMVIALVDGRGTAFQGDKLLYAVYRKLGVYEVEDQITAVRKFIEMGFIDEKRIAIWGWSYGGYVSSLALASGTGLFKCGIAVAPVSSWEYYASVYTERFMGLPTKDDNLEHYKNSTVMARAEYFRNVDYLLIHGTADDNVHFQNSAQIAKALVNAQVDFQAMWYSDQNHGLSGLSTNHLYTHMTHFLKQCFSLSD
The data set is described as follows: FRET-quench assay: probe cleavage by recombinant human FAP. In kind it is biochemical. To be noted: 10 nM enzyme.
Excerpt: (§3) Human prolyl oligopeptidase (PREP, 4308-SE), DPPIV (1180-SE), DPP9 (5419-SE), and DPPII/DPP7 (3438-SE) proteins were purchased from R&D Systems. Human DPP8 (BML-SE527) protein was purchased from Enzo Life Sciences. N-terminal octa-His-tagged human and mouse FAP proteins containing the extracellular domain (residues L26-D760 and L26-D761, respectively) were purified from the conditioned media of transiently-transfected CHO cells, by immobilized metal affinity chromatography (IMAC), followed by size exclusion chromatography (SEC).
as §2

Another data set has as its target T3, recombinant human PREP (Homo sapiens, UniProt P48147).
T3 construct: purchased R&D Systems 4308-SE
T3 sequence (P48147 1-710): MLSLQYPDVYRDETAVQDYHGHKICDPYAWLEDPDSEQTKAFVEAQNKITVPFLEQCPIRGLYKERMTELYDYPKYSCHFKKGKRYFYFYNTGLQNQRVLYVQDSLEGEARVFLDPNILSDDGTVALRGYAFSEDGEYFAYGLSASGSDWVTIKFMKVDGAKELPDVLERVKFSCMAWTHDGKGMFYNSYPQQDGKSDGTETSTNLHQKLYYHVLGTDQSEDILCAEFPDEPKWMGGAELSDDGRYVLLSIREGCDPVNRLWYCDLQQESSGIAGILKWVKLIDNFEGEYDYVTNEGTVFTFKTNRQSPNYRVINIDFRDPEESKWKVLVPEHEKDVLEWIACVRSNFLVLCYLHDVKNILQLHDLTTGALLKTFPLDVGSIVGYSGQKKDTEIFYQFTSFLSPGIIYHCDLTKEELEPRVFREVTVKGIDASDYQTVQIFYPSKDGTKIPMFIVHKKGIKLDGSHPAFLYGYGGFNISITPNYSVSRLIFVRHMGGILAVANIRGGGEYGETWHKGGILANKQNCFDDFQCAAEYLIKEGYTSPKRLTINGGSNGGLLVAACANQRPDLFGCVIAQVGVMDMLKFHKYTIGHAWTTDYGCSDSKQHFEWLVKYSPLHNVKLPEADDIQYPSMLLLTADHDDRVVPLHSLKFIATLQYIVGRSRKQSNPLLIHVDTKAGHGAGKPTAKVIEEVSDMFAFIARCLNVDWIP
Kind of data set: FRET-quench assay: probe cleavage by recombinant human PREP. In kind it is biochemical. To be noted: 10 nM enzyme.
Excerpt: as §3, §2

For a further data set, the target named is T4, tissue FAP activity (Mus musculus, UniProt P97321).
T4 construct: from tissue
T4 sequence (P97321 1-761): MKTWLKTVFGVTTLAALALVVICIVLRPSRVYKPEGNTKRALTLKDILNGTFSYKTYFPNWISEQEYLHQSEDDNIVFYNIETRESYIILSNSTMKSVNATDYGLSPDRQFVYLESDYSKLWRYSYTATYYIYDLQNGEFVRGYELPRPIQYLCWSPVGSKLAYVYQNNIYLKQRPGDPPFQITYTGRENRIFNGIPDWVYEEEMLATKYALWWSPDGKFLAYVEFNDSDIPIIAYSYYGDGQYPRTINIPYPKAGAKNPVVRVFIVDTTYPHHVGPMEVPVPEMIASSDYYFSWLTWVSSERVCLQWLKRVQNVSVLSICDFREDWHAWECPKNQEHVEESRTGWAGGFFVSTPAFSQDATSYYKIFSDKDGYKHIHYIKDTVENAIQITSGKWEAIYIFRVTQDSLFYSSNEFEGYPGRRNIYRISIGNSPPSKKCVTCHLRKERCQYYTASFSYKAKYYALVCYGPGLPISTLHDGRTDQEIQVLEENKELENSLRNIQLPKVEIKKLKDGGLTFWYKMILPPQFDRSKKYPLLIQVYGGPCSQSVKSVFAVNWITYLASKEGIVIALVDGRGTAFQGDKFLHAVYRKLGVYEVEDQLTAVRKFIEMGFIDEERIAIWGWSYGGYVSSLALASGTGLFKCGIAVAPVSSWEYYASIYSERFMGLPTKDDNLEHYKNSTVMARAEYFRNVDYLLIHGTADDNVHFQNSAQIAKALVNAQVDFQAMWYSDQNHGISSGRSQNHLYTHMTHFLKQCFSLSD
Kind of data set: Ex vivo NIRF imaging of pancreata after i.v. probe in KPP and healthy C57BL/6 mice. The text has this: The utility of the VaPSQG-NIRF probe for imaging of tissue FAP activity was studied in a genetically engineered mouse model of pancreatic cancer, KrasLSL.G12D/wt;p16/p19fl/fl;Pdx1. Cre, or “KPP” for short (Singh, M. et al. Nat. Biotechnol. 28:585-593 (2010); Aguirre, A. J. et al. Genes Dev. 17:3112-26 (2003)). […] The VaPSQG-NIRF probe was synthesized by CPC Scientific (Sunnyvale, Calif.).
Prior to the imaging study, three KPP mice (9.3 weeks old) with varying tumor volumes were selected based on an in vivo ultrasound scan. Additionally, three healthy C57BL/6 mice (8.3 weeks old) were also studied as controls. One nmol VaPSQG-NIRF probe diluted in 150 microL of PBS was intravenously administered to each mouse via tail vein under anesthesia. […] After 4 hours, the mice were euthanized and pancreas tissues were dissected. The dissected tissues were rinsed with PBS, dried with tissue paper, and put on black paper for ex vivo NIRF imaging. Near infrared images are acquired using a CCD camera (Pearl Trilogy, Li-cor).

Take `N#C[C@@H]1CCCN1C(=O)[C@@H]1CCCN1C(=O)CCCc1ccccc1` [KYP-2047]: the “sensitivity of residual GP probe cleaving activity to the inhibitor” value in data set [1] (Fap KO plasma) was “sensitive”.
Regarding `N#C[C@@H]1CC(F)(F)CN1C(=O)CNC(=O)c1ccnc2ccccc12` [cpd60], in the data set on FAP-related activity (bolus p.o.), the “change in FAP-related activity” value was “transient decrease”. The clearance from circulation entry in the data set on FAP-related activity is reported as “rapid clearance”. For the same compound, the “sensitivity of GP probe activity to the inhibitor” value in data set [1] (WT or heterozygous plasma) is listed as “clearly sensitive”. Also, the “suppression of circulating (plasma) FAP activity” value on circulating FAP activity is “completely suppress; also recorded: undetectable levels; also recorded: completely suppressed”.
Turning to “aP NIRF: identical to aP, but the FRET donor and quencher replaced with Cy5.5 and QSY21”, the “cleavage by recombinant human FAP” value with recombinant human FAP is given as “efficiently cleaves”. Moreover, the “cleavage by recombinant human PREP” value with recombinant human PREP is recorded as “not”. Also, the “relative fluorescence intensities normalized to imaging area, KPP versus healthy control pancreata” value with tissue FAP activity (4 hours after 1 nmol i.v., P<0.05) was “much greater fluorescence”. The “ex vivo imaging fluorescent signal of pancreata” value with tissue FAP activity (KPP group, 4 hours after 1 nmol i.v.) is listed as “strong fluorescent signal”. Also, the treatment-related adverse effect entry in the data set with tissue FAP activity (mice, 1 nmol i.v. via tail vein, until euthanasia after 4 hours) is recorded as “No treatment-related adverse effect was observed”.
